Measurements reported in ChEMBL document CHEMBL1127125, “Synthesis and testing of substituted phenylthioribose analogs against Klebsiella pneumoniae” (Bioorg Med Chem Lett, 1993).
In brackets after ≈: the same amount, converted by molar mass. One block for each molecule: values may come before it.

Tests used:
Klebsiella pneumoniae [1] = experiment: Compound was tested for its ability to inhibit the growth of a clinical strain of Klebsiella pneumoniae at 0.01 ng/mL; format: functional, organism-based
Klebsiella pneumoniae [2] = experiment: Minimum inhibitory concentration of compound for its inhibitory activity against Klebsiella pneumoniae growth at 2.60 ug/mL; format: functional
Klebsiella pneumoniae [3] = experiment: Concentration required to inhibit the growth of a clinical strain of Klebsiella pneumoniae by 50%; format: functional, organism-based
Klebsiella pneumoniae [4] = experiment: Minimum inhibitory concentration of compound for its inhibitory activity against Klebsiella pneumoniae growth at 0.002 ug/mL; format: functional
Klebsiella pneumoniae [5] = experiment: Minimum inhibitory concentration of compound for its inhibitory activity against Klebsiella pneumoniae growth at 20.7 ug/mL; format: functional
[6] = Compound was tested for its ability to inhibit the growth of a clinical strain Ochromonas malhamensis; format: functional
Plasmodium falciparum = experiment: Inhibition of Plasmodium falciparum; format: functional, organism-based
Klebsiella pneumoniae [7] = experiment: Compound was tested for its ability to inhibit the growth of a clinical strain of Klebsiella pneumoniae; format: functional, organism-based
Klebsiella pneumoniae [8] = experiment: Minimum inhibitory concentration of compound for its inhibitory activity against Klebsiella pneumoniae growth at 2.4 ug/mL; format: functional

- MIC (Klebsiella pneumoniae [2]): 10 µM (≈ 2.6 µg/mL)
Structure (SMILES): OC1O[C@H](CSc2ccc(F)cc2)[C@@H](O)[C@H]1O (stereo partly specified)
- IC50 (Klebsiella pneumoniae [1]): 0.05 nM

Structure (SMILES): OC1O[C@H](CSc2ccc(C(F)(F)F)cc2)[C@@H](O)[C@H]1O (stereo partly specified)
- IC50 (Klebsiella pneumoniae [3]): 0.04 µM

- MIC (Klebsiella pneumoniae [4]): 0.005 µM (≈ 0.00184 µg/mL)
Structure (SMILES): OC1O[C@H](CSc2ccc(I)cc2)[C@@H](O)[C@H]1O (stereo partly specified)

- MIC (Klebsiella pneumoniae [5]): 75 µM (≈ 20.8 µg/mL)
Structure (SMILES): OC1O[C@H](CSc2ccc(Cl)cc2)[C@@H](O)[C@H]1O (stereo partly specified)
- IC50 (Klebsiella pneumoniae [1]): 500 nM

- IC50 (Plasmodium falciparum): ~300 µM
Structure (SMILES): CCSC[C@H]1OC(O)[C@H](O)[C@@H]1O (stereo partly specified)
- IC50 [6]: ~75 µM
- IC50 (Klebsiella pneumoniae [7]): ~15000 µM

- MIC (Klebsiella pneumoniae [8]): 7.5 µM (≈ 2.41 µg/mL)
Structure (SMILES): OC1O[C@H](CSc2ccc(Br)cc2)[C@@H](O)[C@H]1O (stereo partly specified)
- IC50 (Klebsiella pneumoniae [1]): 375 nM
